In ChEMBL document CHEMBL5042495, “Lead Optimization of Influenza Virus RNA Polymerase Inhibitors Targeting PA-PB1 Interaction” (J Med Chem, 2022):
pEC50: −log10 of the molar value.

Tests used:
[1] = Cytotoxicity in dog MDCK cells assessed as reduction in cell viability incubated for 48 hrs by crystal violet staining based assay; assay type: toxicity, Canis lupus familiaris
[2] = system: Influenza A virus; test: Antiviral activity against Influenza A virus A/WSN/33(H1N1) strain infected in MDCK cells assessed as reduction in viral infection incubated for 48 hrs by crystal violet staining based assay; assay type: functional, organism-based

SMILES	CC50 at 48 h [1] [µM]	pEC50 [2]
CCc1ccc2[nH]c(=O)c(CN(CCCO)Cc3ccc(C(C)(C)C)cc3)cc2c1	> 10	
Cc1ccc2cc(C(C#N)N(Cc3ccc(F)cc3)Cc3ccc(C(C)C)cc3)c(=O)[nH]c2c1 (stereo not given)	21	4.27
CC(C)c1ccc2[nH]c(=O)c(CN(Cc3ccc(C(C)(C)C)cc3)C(C)c3ccc(F)cc3)cc2c1 (stereo not given)	13.1	5.27
Cc1ccc2cc(CN(Cc3ccc(C(C)(C)C)cc3)C3CCCC3)c(=O)[nH]c2c1	> 10	
COc1ccc([C@H](C)N(Cc2ccc(C(C)(C)C)cc2)Cc2cc3cc(C4CC4)ccc3[nH]c2=O)cc1	> 10	6.80
Cc1ccc2[nH]c(=O)c(CN(Cc3ccc(OCC(=O)O)cc3)Cc3ccc(C(C)(C)C)cc3)cc2c1	> 10	5.57
Cc1ccc2[nH]c(=O)c(CN(Cc3ccc(C(C)(C)C)cc3)C(C)c3ccc(OC(F)F)cc3)cc2c1 (stereo not given)	> 5	6.44
CCc1ccc2cc(CN(Cc3ccc(C(C)(C)C)cc3)C3CCCC3)c(=O)[nH]c2c1	> 9	
COc1ccc2[nH]c(=O)c(CN(Cc3ccc(C(C)(C)C)cc3)Cc3ccc(C(F)(F)F)c(Cl)c3)cc2c1	> 10	7.07
Cc1ccc2[nH]c(=O)c(CN(Cc3ccc(OCCO)cc3)Cc3ccc(C(C)(C)C)cc3)cc2c1	> 5	
CCc1ccc2[nH]c(=O)c(CN(Cc3ccc(F)cc3)Cc3ccc4ccccc4c3)cc2c1	> 5	5.68
Cc1ccc2[nH]c(=O)c(CN(Cc3ccc(OC(C)C)cc3)Cc3ccc(C(C)(C)C)cc3)cc2c1	> 5	5.82
CC(C)c1ccc2[nH]c(=O)c(CN(Cc3ccc(F)cc3)Cc3ccc(C(C)(C)C)cc3)cc2c1	7.9	5.72
CCc1ccc2[nH]c(=O)c(CN(Cc3ccc(C(C)(C)C)cc3)[C@@H](C)c3ccc(F)cc3)cc2c1	> 5	6.10
CSc1ccc(CN(Cc2ccc(C(C)(C)C)cc2)Cc2cc3cc(C)ccc3[nH]c2=O)cc1	> 5	6.29
CCc1ccc2[nH]c(=O)c(CN(Cc3ccc(OC(F)F)cc3)Cc3ccc(C(C)(C)C)cc3)cc2c1	> 5	6.34
Cc1ccc2cc(C(C)N(Cc3ccc(F)cc3)Cc3ccc(C(C)C)cc3)c(=O)[nH]c2c1 (stereo not given)	> 33	5.72
CN(C)c1ccc(CN(Cc2ccc(C(C)(C)C)cc2)Cc2cc3cc(Cl)ccc3[nH]c2=O)cc1	> 10	5.82
Cc1ccc2cc(CN(Cc3ccc(Cl)cc3)Cc3ccc(C(C)C)cc3)c(=O)[nH]c2c1	> 33	5.21

SMILES	CC50 at 48 h [1] [µM]	pEC50 [2]
COCOc1ccc(CN(Cc2ccc(C(C)(C)C)cc2)Cc2cc3cc(C)ccc3[nH]c2=O)cc1	6.4	6.42
COc1ccc([C@H](C)N(Cc2ccc(OC(F)(F)F)cc2)Cc2cc3cc(Cl)ccc3[nH]c2=O)cc1	> 10	5.44
COc1ccc(C(C)N(Cc2ccc(C(C)(C)C)cc2)Cc2cc3cc(C4CC4)ccc3[nH]c2=O)cc1Cl (stereo not given)	> 10	7.16
CCc1ccc2[nH]c(=O)c(CN(Cc3ccc(F)cc3)Cc3ccc(-c4ccccc4)cc3)cc2c1	> 5	
Cc1ccc2cc(CN(Cc3ccc(F)cc3)C(=O)c3ccccc3)c(=O)[nH]c2c1	> 33	
Cc1ccc2[nH]c(=O)c(CN(Cc3ccc(C(C)(C)C)cc3)[C@H](C)c3ccc(F)cc3)cc2c1	> 5	
COc1ccc(CN(Cc2ccc(C(C)(C)C)cc2)Cc2cc3ccccc3[nH]c2=O)cc1	1.8	
Cc1ccc2[nH]c(=O)c(CN(CCCO)Cc3ccc(C(C)(C)C)cc3)cc2c1	> 10	
Cc1ccc2cc(C(N(Cc3ccc(F)cc3)Cc3ccc(C(C)C)cc3)C(F)(F)F)c(=O)[nH]c2c1 (stereo not given)	> 33	
Cc1ccc2[nH]c(=O)c(CN(Cc3ccc(C(N)=O)cc3)Cc3ccc(C(C)(C)C)cc3)cc2c1	> 5	
CC(c1ccc(N(C)C)c(Cl)c1)N(Cc1ccc(OC(F)(F)F)cc1)Cc1cc2cc(Br)ccc2[nH]c1=O (stereo not given)	4.7	
Cc1ccc2[nH]c(=O)c(CN(Cc3ccc(C(C)(C)C)cc3)[C@H](CO)c3ccccc3)cc2c1	> 10	
Cc1cccc2cc(CN(Cc3ccc(F)cc3)Cc3ccc(C(C)(C)C)cc3)c(=O)[nH]c12		5.74
Cc1ccc2cc(CN(Cc3ccc(Cl)cc3)Cc3ccc(Cl)cc3)c(=O)[nH]c2c1	> 33	
CCc1ccc2[nH]c(=O)c(CN(Cc3ccc(C(C)(C)C)cc3)[C@H](CO)c3ccccc3)cc2c1	> 10	
COc1ccc([C@H](C)N(Cc2ccc(C(C)(C)C)cc2)Cc2cc3ccccc3[nH]c2=O)cc1	1.8	
C[C@H](c1ccc(OC(F)(F)F)cc1)N(Cc1ccc(C(C)(C)C)cc1)Cc1cc2cc(C3CC3)ccc2[nH]c1=O		5.70
CCCCC(c1cc2ccc(C)cc2[nH]c1=O)N(Cc1ccc(F)cc1)Cc1ccc(C(C)C)cc1 (stereo not given)	> 33	
